Measurements reported in PubChem BioAssay AID504739 (National Center for Advancing Translational Sciences (NCATS), 2011).

System: mouse liver microsomes, LC-MS/MS, half-life
Experiment: Inhibitors of Bloom's syndrome helicase: Metabolic Stability Profiling
Settings: at 1 µM; stronger effect = higher value
Excerpt: Survival of cells and the faithful propagation of the genome depend on elaborate mechanisms of detecting and repairing DNA damage. Treatment of advanced cancer relies on radiation therapy or chemotherapy, which kill cancer cells by causing extensive DNA damage. It is often found, that cancer cells develop resistance to therapy through enhanced activity of DNA repair functions; this has led to an increased interest in developing drugs that interfere with DNA repair, which could sensitize cancer cells to conventional therapy. Bloom syndrome helicase (BLM), is important in resolving abnormal DNA structures formed during replication or homologous recombination. Shutting down the expression of BLM leads to chromosomal instability and higher radiation sensitivity in cultured cells. After the completion of a qHTS campaign, secondary assays, and rounds of medicinal chemistry, a compound was identified to be further characterized through in vitro ADME assays. Mouse liver microsomes are created through broken up endoplasmic reticulum from mouse liver. These liver microsomes contain many drug metabolizing enzymes, such as Cytochome P-450s and flavin-containing monooxygenases. Because metabolism is major way of drug clearance, this is an important result. […]
1uM of compound in incubated in mouse liver microsome; the reference compound is ketanserin. […] Samples are analyzed with LC-MS/MS.

SMILES: O=C(Nc1ccc(F)c(C(F)(F)F)c1)Nc1nnc(-c2ccncc2)s1
- half-life: 2 h
